Test system: C. difficile infection (CDI)
Assay: Double-blind non-inferiority trial rifaximin 400 mg TID vs vancomycin 125 mg QID, 10 days, C. difficile infection
Format: in vivo, human
Procedure: Criteria for entry into the trial were: • Age >=18 years old; • Had acute diarrhea at screening defined as >=3 unformed stools in the last 24 hours and at least one sign of enteric infection (fever, nausea, lose of appetite, vomiting, severe abdominal pain/discomfort); and • a positive C. diff stool toxin assay Endpoint:
The primary efficacy endpoint of the study was defined as the proportion of subjects achieving clinical success. Specifically, clinical success was defined as the absence of severe abdominal pain at Test of Cure (TOC), absence of fever (<38° C.) at TOC, and <3 unformed stools for two consecutive days at TOC.
Clinical success was defined as the: Absence of severe abdominal pain at TOC, absence of fever (<38° C.) at TOC, and <3 unformed stools for two consecutive days at TOC. Test of cure defined as Day 14+/−1 day.
Recurrence was defined to be a diarrhea and a positive C. diff stool toxin assay that occurred after initial clinical success.
Global cure of diarrhea was defined as subjects who were cured of diarrhea at TOC without recurrence at follow up.
Subjects who completed the study without achieving clinical success were censored at Day 14

[1] = Rifaximin N = 117, Vancomycin N = 115
[2] = adjusting for concomitant medication usage, Rifaximin N = 109, Vancomycin N = 112
[3] = adjusting for concomitant medication usage, Rifaximin N = 117, Vancomycin N = 115
[4] = after initial clinical success, Rifaximin N = 67, Vancomycin N = 73
[5] = all subjects, Rifaximin N = 117, Vancomycin N = 115
[6] = at TOC, Rifaximin N = 108, Vancomycin N = 111
[7] = at TOC, Rifaximin N = 117, Vancomycin N = 115
[8] = cured at TOC without recurrence at follow up, Rifaximin N = 117, Vancomycin N = 115
[9] = subgroup Age <65, at TOC, Rifaximin N = 69, Vancomycin N = 62
[10] = subgroup Age >=65, at TOC, Rifaximin N = 39, Vancomycin N = 49
[11] = subgroup Female, at TOC, Rifaximin N = 68, Vancomycin N = 64
[12] = subgroup Male, at TOC, Rifaximin N = 40, Vancomycin N = 47

CN[C@H](CC(C)C)C(=O)N[C@H]1C(=O)N[C@@H](CC(N)=O)C(=O)N[C@H]2C(=O)N[C@H]3C(=O)N[C@H](C(=O)N[C@H](C(=O)O)c4cc(O)cc(O)c4-c4cc3ccc4O)[C@H](O)c3ccc(c(Cl)c3)Oc3cc2cc(c3O[C@@H]2O[C@H](CO)[C@@H](O)[C@H](O)[C@H]2O[C@H]2C[C@](C)(N)[C@H](O)[C@H](C)O2)Oc2ccc(cc2Cl)[C@H]1O [Vancomycin]
Continuing Illness No: % of subjects [1]: 86%
Continuing Illness No: number of subjects [1]: 99
Continuing Illness Yes: % of subjects [1]: 14%
Continuing Illness Yes: number of subjects [1]: 16
Global Cure of Diarrhea No: % of subjects [1]: 26%
Global Cure of Diarrhea No: number of subjects [1]: 30
Diarrhea No: % of subjects [2]: 73%
Diarrhea No: number of subjects [2]: 82
Diarrhea Yes: % of subjects [2]: 27%
Diarrhea Yes: number of subjects [2]: 30
Clinical Success No: % of subjects [3]: 40%
Clinical Success No: number of subjects [3]: 46
Clinical Success Yes: % of subjects [3]: 60%
Clinical Success Yes: number of subjects [3]: 69
No Recurrence of CDI: % of subjects [4]: 86%
No Recurrence of CDI: number of subjects [4]: 63
Recurrence of CDI: % of subjects [4]: 14%
Recurrence of CDI: number of subjects [4]: 10
Recurrence No: % of subjects [5]: 93%
Recurrence No: number of subjects [5]: 105
Recurrence Yes: % of subjects [5]: 7%
Recurrence Yes: number of subjects [5]: 10
Diarrhea No: % of subjects [6]: 81%
Diarrhea No: number of subjects [6]: 90
Diarrhea Yes: % of subjects [6]: 19%
Diarrhea Yes: number of subjects [6]: 21
Fever No: % of subjects [6]: 98%
Fever No: number of subjects [6]: 109
Fever Yes: % of subjects [6]: 2 (2%)
Fever Yes: number of subjects [6]: 2 (2%)
Severe Abdominal Pain/Discomfort No: % of subjects [6]: 86%
Severe Abdominal Pain/Discomfort No: number of subjects [6]: 95
Severe Abdominal Pain/Discomfort Yes: % of subjects [6]: 14%
Severe Abdominal Pain/Discomfort Yes: number of subjects [6]: 16
Clinical Success No: % of subjects [7]: 37%
Clinical Success No: number of subjects [7]: 42
Clinical Success Yes: % of subjects [7]: 64%
Clinical Success Yes: number of subjects [7]: 73
Global Cure of Diarrhea Yes: % of subjects [8]: 74%
Global Cure of Diarrhea Yes: number of subjects [8]: 85
Adjusted mean number of unformed stools-ANOVA (during the treatment period, Rifaximin N = 117, Vancomycin N = 115): 1.90
Diarrhea: % of subjects [9]: 19%
Diarrhea: number of subjects [9]: 12
No Diarrhea: % of subjects [9]: 81%
No Diarrhea: number of subjects [9]: 50
Diarrhea: % of subjects [10]: 18%
Diarrhea: number of subjects [10]: 9
No Diarrhea: % of subjects [10]: 82%
No Diarrhea: number of subjects [10]: 40
Diarrhea: % of subjects [11]: 17%
Diarrhea: number of subjects [11]: 11
No Diarrhea: % of subjects [11]: 83%
No Diarrhea: number of subjects [11]: 53
Diarrhea: % of subjects [12]: 21%
Diarrhea: number of subjects [12]: 10
No Diarrhea: % of subjects [12]: 79%
No Diarrhea: number of subjects [12]: 37
